# Laboratory results taken from EPA's ToxRefDB 2.
# How the values were obtained:
# rat [1] = conditions: Multigenerational reproductive toxicity study, sprague dawley, Oral, Feed, dose end: 2 generation
# dog [2] = conditions: Chronic toxicity, beagle, Oral, Feed, dose end: 104 week, group: systemic
# mouse = conditions: Carcinogenicity, other, Oral, Feed, dose end: 105 week, group: systemic
# rat [3] = conditions: Combined chronic toxicity/carcinogenicity, wistar, Oral, Feed, dose end: 24 month, group: systemic
# rat [4] = conditions: Prenatal developmental toxicity study, Oral, Gavage/Intubation, dose end: 16 GD
# dog [5] = conditions: Subchronic oral toxicity in nonrodent, beagle, Feed, dose end: 13 week, group: systemic, systemic / pathology microscopic / kidney / pyelonephritis
# rat [6] = conditions: Subchronic oral toxicity in rodents, Feed, dose end: 3 month, group: systemic
# [7] = group: offspring, developmental / offspring survival late / [other] / [other]
# [8] = group: parental, systemic / organ weight / kidney / relative to body weight + systemic / organ weight / spleen / absolute + systemic / organ weight / spleen…
# [9] = group: parental, systemic / organ weight / liver / absolute + systemic / organ weight / liver / relative to body weight
# [10] = systemic / in life observation / body weight / body weight + systemic / in life observation / body weight / body weight gain
# [11] = systemic / pathology microscopic / liver / focal cellular change + systemic / pathology microscopic / liver / hypertrophy + systemic / …
# [12] = systemic / pathology microscopic / liver / hypertrophy
# [13] = group: developmental, developmental / developmental malformation / bone / incomplete ossification + systemic / in life observation / body weight / fetal weight
# [14] = group: maternal, reproductive / reproductive performance / postimplantation loss / postimplantation loss + systemic / in life observation / body weight / …
# [15] = systemic / clinical chemistry / lipids, total / lipids, total + systemic / organ weight / ovary / relative to body weight + systemic / organ…
structure (smiles),measurement,setting,value
CCOC(=O)C(C)Oc1ccc(Oc2nc3ccc(Cl)cc3o2)cc1 (stereo unspecified) [Fenoxaprop-ethyl],LEL,rat [1]; [7],0.25 mg/kg/day
same,LOAEL,rat [1]; [7],0.25 mg/kg/day
same,NEL,rat [1]; [7],< 0.25 mg/kg/day
same,NOAEL,rat [1]; [7],< 0.25 mg/kg/day
same,LEL,rat [1]; [8],1.94 mg/kg/day
same,NEL,rat [1]; [8],0.33 mg/kg/day
same,LOAEL,rat [1]; [9],9.05 mg/kg/day
same,NOAEL,rat [1]; [9],1.53 mg/kg/day
same,LEL,dog [2]; systemic / in life observation / body weight / body weight,0.375 mg/kg/day
same,LOAEL,dog [2]; [10],1.88 mg/kg/day
same,NEL,dog [2]; [10],0.075 mg/kg/day
same,NOAEL,dog [2]; [10],0.375 mg/kg/day
same,LOAEL,mouse; [11],16.6 mg/kg/day
same,NOAEL,mouse; [11],5.7 mg/kg/day
same,LEL,mouse; [12],5.7 mg/kg/day
same,NEL,mouse; [12],< 5.7 mg/kg/day
same,LOAEL,"rat [3]; systemic / clinical chemistry / cholesterol / cholesterol + systemic / clinical chemistry / lipids, total / lipids, total",9 mg/kg/day
same,NOAEL,"rat [3]; systemic / clinical chemistry / cholesterol / cholesterol + systemic / clinical chemistry / lipids, total / lipids, total + systemic / organ…",1.5 mg/kg/day
same,NEL,rat [3]; systemic / clinical chemistry / cholesterol / cholesterol + systemic / hematology / leukocyte (wbc) count differential / leukocyte (wbc) + …,0.25 mg/kg/day
same,LEL,rat [3]; systemic / clinical chemistry / cholesterol / cholesterol + systemic / pathology microscopic / liver / glycogen liberation + systemic / …,1.5 mg/kg/day
same,LEL,rat [4]; [13],100 mg/kg/day
same,LOAEL,rat [4]; [13],100 mg/kg/day
same,NEL,rat [4]; [13],32 mg/kg/day
same,NOAEL,rat [4]; [13],32 mg/kg/day
same,LEL,rat [4]; [14],100 mg/kg/day
same,LOAEL,rat [4]; [14],100 mg/kg/day
same,NEL,rat [4]; [14],32 mg/kg/day
same,NOAEL,rat [4]; [14],32 mg/kg/day
same,LEL,dog [5],2 mg/kg/day
same,LOAEL,dog [5],2 mg/kg/day
same,NEL,dog [5],0.4 mg/kg/day
same,NOAEL,dog [5],0.4 mg/kg/day
same,LEL,rat [6]; [15],1 mg/kg/day
same,NEL,rat [6]; [15],< 1 mg/kg/day
same,LOAEL,rat [6]; systemic / organ weight / adrenal gland / relative to body weight,4 mg/kg/day
same,NOAEL,rat [6]; systemic / organ weight / adrenal gland / relative to body weight + systemic / clinical chemistry / cholesterol / cholesterol + systemic / …,1 mg/kg/day
